ChEMBL document CHEMBL1208731, “A novel, broad-spectrum anticancer compound containing the imidazo[4,5-e][1,3]diazepine ring system” (Bioorg Med Chem Lett, 2010)
Calls of active or inactive are those of the source. The rule behind the calls is not given here.

Key:
Type in all cases: functional, cell-based
MCF7 = test: Cytotoxicity against human MCF7 cells after 72 hrs; settings: MCF7, 72 h
PC-3 = test: Cytotoxicity against human PC3 cells after 72 hrs; settings: PC-3, 72 h
NCI-H460 = test: Cytotoxicity against human H460 cells after 72 hrs; settings: NCI-H460, 72 h
OVCAR-3 = test: Cytotoxicity against human OVCAR-3 cells after 72 hrs
A549 = test: Cytotoxicity against human A549 cells after 72 hrs; settings: A549, 72 h

Compound CCNc1nc(N)c2ncnc-2c(N)n1 has an IC50 (MCF7) of over 800 µM, an IC50 (PC-3) of over 800 µM and an IC50 (NCI-H460) of 22 µM. The Activity (OVCAR-3) was “Active” and the IC50 (A549) was 38 µM.
